molecular target: T1, human 5-HT1A serotonergic receptor (Homo sapiens, UniProt P08908); test: Binding to recombinant human 5-HT1A receptors ([3H]8-OH-DPAT, HeLa cell membranes); settings: read-out: Binding affinity for the 5-HT1A receptor, Ki
T1 construct: expressed in transfected cells; host or cells: HeLa (stably transfected)
T1 sequence (P08908 1-422): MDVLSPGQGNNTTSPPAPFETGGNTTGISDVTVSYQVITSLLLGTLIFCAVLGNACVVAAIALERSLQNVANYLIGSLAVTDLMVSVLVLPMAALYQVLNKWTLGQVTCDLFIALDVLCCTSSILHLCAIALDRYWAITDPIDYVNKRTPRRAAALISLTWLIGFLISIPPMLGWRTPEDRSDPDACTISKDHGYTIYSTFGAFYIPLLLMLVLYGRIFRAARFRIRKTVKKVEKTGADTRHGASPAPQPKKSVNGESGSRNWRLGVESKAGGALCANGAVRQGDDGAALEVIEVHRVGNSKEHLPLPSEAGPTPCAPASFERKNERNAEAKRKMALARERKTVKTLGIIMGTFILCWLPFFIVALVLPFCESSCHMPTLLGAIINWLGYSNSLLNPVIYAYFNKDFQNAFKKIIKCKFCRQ
Experimental: Genomic clone G-21 coding for the human 5-HT1A serotonergic receptor is stably transfected in a human cell line (HeLa). HeLa cells were grown as monolayers in Dulbecco's modified Eagle's medium (DMEM), supplemented with 10% fetal calf serum and gentamicin ([…]), 5% CO2 at 37° C. Cells were detached from the growth flask at 95% confluence by a cell scraper and were lysed in ice-cold 5 mM Tris and 5 mM EDTA buffer (pH 7.4). Homogenates were centrifuged at 40000×g×20 min and pellets were resuspended in a small volume of ice-cold 5 mM Tris and 5 mM EDTA buffer (pH 7.4) and immediately frozen and stored at −70° C. until use. On the day of experiment, cell membranes were resuspended in binding buffer: 50 mM Tris HCl (pH 7.4), 2.5 mM MgCl2, 10 μM pargiline (Fargin et al., Nature 335, 358-360, 1988). Membranes were incubated in a final volume of 1 ml for 30 min at 30° C. with 0.2-1 nM [3H]8-OH-DPAT, in absence or presence of competing drugs; non-specific binding was determined in the presence of 10 μM 5-HT. The incubation was stopped by addition of ice-cold Tris-HCl buffer and rapid filtration through 0.2% polyethyleneimine pretreated Whatman GF/B or Schleicher & Schuell GF52 filters.
The inhibition of specific binding of the radioligands by the tested drugs was analyzed to estimate the IC50 value by using the non-linear curve-fitting program Allfit (De Lean et al., Am. J. Physiol. 235, E97-E102, 1978). The IC50 value was converted to an affinity constant (Ki) by the equation of Cheng & Prusoff (Cheng, Y. C.; Prusoff, W. H. Biochem. Pharmacol. 22, 3099-3108, 1973).

Ki [nM] | Compound
1.6 | COc1cc(O)ccc1N1CCN(CCN(C(=O)C2CCCCC2)c2ccccc2OC(F)(F)F)CC1 [Example 93, 1[N-cyclohexylcarbonyl-N-(2-trifluoromethoxyphenyl)-2-aminoethyl]-4-(4-hydroxy-2-methoxyphenyl)piperazine]
1.2 | COc1cc(OC(=O)C(C)C)ccc1N1CCN(CCN(C(=O)C2CCCCC2)c2ccccc2OC(F)(F)F)CC1 [Example 96, 1-[N-cyclohexylcarbonyl-N-(2-trifluoromethoxyphenyl)-2-aminoethyl]-4-[4-(2-methylpropionyloxy)-2-methoxyphenyl]piperazine]

Compound | Ki [nM]
COc1cc(OC(C)=O)ccc1N1CCN(CCN(C(=O)C2CCCCC2)c2ccccc2OC(F)(F)F)CC1 [Example 94, 1-[N-cyclohexylcarbonyl-N-(2-trifluoromethoxyphenyl)-2-aminoethyl]-4-(4-acetoxy-2-methoxyphenyl)piperazine] | 2.14

Source: patent US20020193383A1, “1-(N-phenylalkylaminoalkyl)piperazine derivatives substituted at position 2 of the phenyl ring” (Recordati S.A., Chemical and Pharmaceutical Comoany, priority 1997, published 2002)
